Target: T1, human tyrosinase (Homo sapiens, UniProt P14679)
T1 sequence (P14679 19-529): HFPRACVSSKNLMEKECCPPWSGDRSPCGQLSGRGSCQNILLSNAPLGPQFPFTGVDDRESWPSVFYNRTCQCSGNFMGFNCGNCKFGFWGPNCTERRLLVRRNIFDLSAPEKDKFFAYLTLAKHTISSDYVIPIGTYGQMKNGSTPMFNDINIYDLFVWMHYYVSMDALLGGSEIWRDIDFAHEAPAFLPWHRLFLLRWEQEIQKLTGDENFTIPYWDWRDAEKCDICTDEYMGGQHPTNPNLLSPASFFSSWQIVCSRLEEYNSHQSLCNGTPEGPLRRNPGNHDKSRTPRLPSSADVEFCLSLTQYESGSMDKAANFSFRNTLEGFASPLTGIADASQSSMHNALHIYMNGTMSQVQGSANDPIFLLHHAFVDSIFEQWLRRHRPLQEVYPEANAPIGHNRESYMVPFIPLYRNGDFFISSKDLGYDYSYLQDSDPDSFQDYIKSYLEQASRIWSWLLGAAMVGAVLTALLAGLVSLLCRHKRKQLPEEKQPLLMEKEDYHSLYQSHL
Experiment: Enzyme test: conversion of L-DOPA to L-dopaquinone by human tyrosinase (MBTH, absorption at 490 nm)
Assay type: biochemical
Settings: tyrosinase activity
Procedure: Method Description of the Effectiveness Investigations:
In this literature-known method (Winder, A. J. and Harris, H., New assays for the tyrosine hydroxylase and dopa oxidase activities of tyrosinase. Eur. J. Biochem. (1991), 198, 317-26), the reaction product L-dopaquinone is reacted with MBTH (3-methyl-2-benzothiazoline hydrazone) to give a pink-colored substance, the increase of which is measured over time by absorption at 490 nm. […] It can be concluded from this that the substances according to the invention are extremely effective pigmentation-inhibiting substances.

Structure (SMILES): CC(C)C(=O)Nc1nc(-c2ccc(O)cc2O)cs1 [N-(4-(2,4-dihydroxyphenyl)thiazol-2-yl)isobutyramide]
- Inhibition (% of the control) (concentration 0.4 μg/mL): 38.2 % of the control

Structure (SMILES): C/C=C/C=C/C(=O)[O-].[K+] [Potassium sorbate]
- Inhibition (% of the control) (concentration 200 μg/mL): 42.0 % of the control

Structure (SMILES): O=C([O-])c1ccccc1.[Na+] [Sodium benzoate]
- Inhibition (% of the control) (concentration 200 μg/mL): 43.6 % of the control
